# Experimental data published in patent US4033969A, “Vincamine derivatives” (Agence Nationale de Valorisation de la Recherche (ANVAR), priority 1972, dated 1977).
# Like-named read-outs stand apart in the source and are kept apart here.
# Key:
# Type in all cases: in vivo
# curarized rat = test: Electroencephalographic consequences of cerebral hypoxia induced by temporary asphyxia in rat; conditions: for Cortical recovery time / Cortical resistance time: rat asphyxia, 5 min prior; for Cortical recovery time: saline 42.3 ± 7.3; for Cortical resistance time: saline 77.8 ± 2.9
# Text: 4. Electroencephalographic consequences of a cerebral hypoxia induced by temporary asphyxia in rat
# The effects of an asphyxic cerebral hypoxia, obtained by a two-minute interruption of the artificial respiration of a curarized rat are investigated at the level of the electro-corticogram (recorded in fronto-parietal lead) by determining:
# on the one hand the "cortical resistance" time, i.e., the period of time which elapses between the discontinuation of artificial respiration and the appearance in the recording of the "electric silence" (disappearance of cortical electrogenesis),
# (§1) on the other hand, the "cortical recovery" time, i.e., the period of time which elapses between the resumption of artificial respiration and the reappearance of a cortical electrogenesis.
# (§2) The test materials are administered intravenously 5 minutes prior to asphyxia. The results obtained in the treated animals are compared with those obtained in a lot of reference animals, according to Student's "t" method.
# [1] = Acute toxicity in mice (i.v.); conditions: mouse, in vivo, iv
# Procedure: (§3) 1. Acute toxicity in mice
# (§4) The dosage of test material which, on intravenous administration in mice causes the death of 50% of the test animals is determined (death rate is determined after 10 days of observation).
# mice [2] = test: Survival time of mice under a confined atmosphere; conditions: for ED50: Mus musculus, protected = survival time greater by at least 30% than reference animals, read-out: ED50 (protects 50% of the test animals)
# Procedure: 2. Survival time of mice under a confined atmosphere
# Mice are individually placed in sealed 250 ml glass jars. Survival time is measured taking respiratory failure as a criterion of death.
# The test materials are administered as aqueous solutions:
# either intraperitoneally, in which case the animals are submitted to the test 30 minutes after injection,
# or orally, in which case the animals are submitted to the test 1.5 hour after administration.
# The dosage of material (ED50) which protects 50% of the test animals is determined: is considered as protected, a mouse having a survival time greater by a factor of at least 30% with respect to the average survival time of the reference animals.
# spinal rat = test: Electroencephalographic consequences of cerebral hypoxia induced by temporary ischemia in rat; conditions: for Cortical recovery time / Cortical resistance time: rat ischemia, 5 min prior; for Cortical recovery time: saline 19.8 ± 1.3; for Cortical resistance time: saline 22.3 ± 0.6
# Procedure: 3. Electroencephalographic consequences of cerebral hypoxia induced by temporary ischemia in rat
# In spinal rat, the effects of a temporary cerebral ischemic hypoxia obtained by ligation of the vertebral arteries and clamping, during 60 seconds, of the carotid arteries, are investigated at the level of the electrocorticogram (recorded in fronto-parietal lead). The following times are determined:
# on the one hand, the "cortical resistance" time, i.e., the period of time which elapses between failure of the cerebral circulation and the appearance, in the recording, of the "dectric silence"disappearance of cortical electrogenesis), and
# on the other hand, the "cortical recovery" time, i.e., the period of time which elapses between unclamping of the carotid arteries and the reappearance of a cortical electrogenesis.
# The test materials are administered intravenously 5 minutes prior to ischemia. The results obtained in the treated animals are compared with those obtained in a lot of reference animals according to Student's "t" method.
# curarized cat = test: Electroencephalographic consequences of cerebral hypoxia induced by temporary asphyxia in cat; conditions: for Cortical recovery time / Cortical resistance time: cat asphyxia, 5 min prior; for Cortical recovery time: saline 27.3 ± 2.3; for Cortical resistance time: saline 108 ± 5.6
# Text: 5. Electroencephalographic consequences of cerebral hypoxia induced by temporary asphyxia in cat
# The effects of an asphyxic cerebral hypoxia, obtained by temporary discontinuance of the artificial respiration of a curarized cat are investigated at the level of the electrocorticogram (recorded in parieto-occipital lead), by determining:
# on the one hand, the "cortical resistance" time, i.e., the period of time which elapses between the discontinuance of the artificial respiration and the appearance in the recording of the "electric silence" (disappearance of cortical electrogenesis),
# as §1, with “electrogenesis. The resumption of artificial respiration is effected in all cases 45 seconds after appearance of the cortical silence.” for “electrogenesis.”
# as §2
# mice [3] = test: Acute toxicity in mice (i.v.); conditions: mice
# Procedure: as §3, §4
# [4] = 2.5 mg/kg i.v., n=6, mean ± standard deviation from mean
# [5] = ip, 0.5 h, i.p., 30 min before test
# [6] = 2.5 mg/kg i.v., n=8, mean ± standard deviation from mean
structure (smiles),measurement,setting,value
"CC[C@]12CCCN3CCc4c(n(c5ccccc45)[C@@](O)(C(=O)OC)C1)[C@@H]32 (racemic) [Vincamine, (.-+.)-Vincamine]",Cortical recovery time,curarized rat; [4],55.5 ± 20.2 s
same,Cortical resistance time,curarized rat; [4],83.3 ± 6.4 s
same,Cortical recovery time,"curarized rat; 5.0 mg/kg i.v., n=6",32.8 ± 1.8 s
same,Cortical resistance time,"curarized rat; 5.0 mg/kg i.v., n=6",89.0 ± 7.6 s
same,protective activity,"curarized rat; rat, asphyxia, 2.5 and 5 mg/kg i.v.",free from any protective activity
same,LD50 at 240 h,"[1]; mice, i.v., death rate after 10 days of observation",62 mg/kg
same,ED50,mice [2]; [5],18 mg/kg
same,ED50,"mice [2]; po, 1.5 hour before test",40 mg/kg
same,Number of mice protected,"mice [2]; i.p., 1 mg/kg, 30 min before test",0/6
same,Number of mice protected,"mice [2]; i.p., 5 mg/kg, 30 min before test",1/6
same,Number of mice protected,"mice [2]; i.p., 25 mg/kg, 30 min before test",4/6
same,Number of mice protected,"mice [2]; p.o., 25 mg/kg, 1.5 hour before test",2/6
same,Number of mice protected,"mice [2]; p.o., 50 mg/kg, 1.5 hour before test",4/6
same,Number of mice protected,"mice [2]; p.o., 100 mg/kg, 1.5 hour before test",5/6
same,Cortical recovery time,spinal rat; [4],21.8 ± 2.0 s
same,Cortical resistance time,spinal rat; [4],22.2 ± 1.2 s
same,Cortical recovery time,"spinal rat; 5 mg/kg i.v., n=7",19.9 ± 3.0 s
same,Cortical resistance time,"spinal rat; 5 mg/kg i.v., n=7",23.4 ± 0.9 s
same,protective activity,"spinal rat; rat, ischemia, 2.5 and 5 mg/kg i.v.",free from any protective activity
same,Cortical recovery time,curarized cat; [6],24.6 ± 3.4 s
same,Cortical resistance time,curarized cat; [6],101 ± 13.9 s
same,Cortical recovery time,"curarized cat; 5 mg/kg i.v., n=8, (*) significant P <0.05 vs controls",19.6 ± 1.4 s
same,Cortical resistance time,"curarized cat; 5 mg/kg i.v., n=8",101 ± 5.6 s
same,protective activity,"curarized cat; cat, asphyxia, 5 mg/kg i.v. (tenfold dosage)",apparent only at a tenfold dosage of 5 mg/kg i.v.
"COC(=O)[C@@]1(O)C[C@@H]2CCCN3CCc4c(n1c1ccccc41)[C@H]23 (relative stereo) [Deethylvincamine, (±) 20-Deethyl-vincamine]",Cortical recovery time,"curarized rat; 0.5 mg/kg i.v., n=6",38.8 ± 5.9 s
same,Cortical resistance time,"curarized rat; 0.5 mg/kg i.v., n=6",84.2 ± 4.5 s
same,Cortical recovery time,"curarized rat; 1 mg/kg i.v., n=7, (*) significant P<0.05 vs controls",23.0 ± 5.0 s
same,Cortical resistance time,"curarized rat; 1 mg/kg i.v., n=7",78.0 ± 5.6 s
same,protective activity (decrease of time required for resumption of cortical electrogenesis),"curarized rat; rat, asphyxia, 1 mg/kg i.v.",marked protective activity
same,acute toxicity compared with vincamine,mice [3],substantially of the same order of magnitude as that of vincamine
same,LD50 at 240 h,[1],40 mg/kg
same,ED50,mice [2]; [5],8 mg/kg
same,ED50,"mice [2]; po, 1.5 hour before test",24.5 mg/kg
same,Number of mice protected,"mice [2]; i.p., 3 mg/kg, 30 min before test",1/6
same,Number of mice protected,"mice [2]; i.p., 9 mg/kg, 30 min before test",3/6
same,Number of mice protected,"mice [2]; i.p., 27 mg/kg, 30 min before test",6/6
same,protective activity (increase of the survival time),"mice [2]; mice, confined atmosphere, i.p. and p.o., compared with vincamine",markedly superior to that of vincamine
same,Number of mice protected,"mice [2]; p.o., 7.5 mg/kg, 1.5 hour before test",0/6
same,Number of mice protected,"mice [2]; p.o., 15 mg/kg, 1.5 hour before test",1/6
same,Number of mice protected,"mice [2]; p.o., 30 mg/kg, 1.5 hour before test",4/6
same,Cortical recovery time,"spinal rat; 0.25 mg/kg i.v., n=6",20.3 ± 2.7 s
same,Cortical resistance time,"spinal rat; 0.25 mg/kg i.v., n=6",25.3 ± 1.2 s
same,Cortical recovery time,"spinal rat; 0.5 mg/kg i.v., n=6, (*) significant P < 0.05 vs controls",14.3 ± 1.1 s
same,Cortical resistance time,"spinal rat; 0.5 mg/kg i.v., n=6",24.3 ± 1.6 s
same,protective activity (decrease of time required for resumption of cortical electrogenesis),"spinal rat; rat, ischemia, 0.5 mg/kg i.v.",marked protective activity
same,Cortical recovery time,"curarized cat; 0.5 mg/kg i.v., n=6, (*) significant P <0.05 vs controls",19.0 ± 2.0 s
same,Cortical resistance time,"curarized cat; 0.5 mg/kg i.v., n=6",98 ± 10.8 s
same,protective activity (decrease of time required for resumption of cortical electrogenesis),"curarized cat; cat, asphyxia, 0.5 mg/kg i.v.",exhibits a protective activity
